The record followed here is patent publication US6908935B2, “Calcium receptor modulating agents” (Amgen Inc., priority 2002, dated 2005).

By EC50 is commonly meant the midpoint of the concentration-response curve. A high value points to a less potent agent.

The structures appear in SMILES notation.

This assay addresses T1, human parathyroid cell Ca^2+ receptor (hPCaR) (Homo sapiens, UniProt P41180).
T1 construct: expressed in transfected cells
T1 sequence (P41180 20-1078): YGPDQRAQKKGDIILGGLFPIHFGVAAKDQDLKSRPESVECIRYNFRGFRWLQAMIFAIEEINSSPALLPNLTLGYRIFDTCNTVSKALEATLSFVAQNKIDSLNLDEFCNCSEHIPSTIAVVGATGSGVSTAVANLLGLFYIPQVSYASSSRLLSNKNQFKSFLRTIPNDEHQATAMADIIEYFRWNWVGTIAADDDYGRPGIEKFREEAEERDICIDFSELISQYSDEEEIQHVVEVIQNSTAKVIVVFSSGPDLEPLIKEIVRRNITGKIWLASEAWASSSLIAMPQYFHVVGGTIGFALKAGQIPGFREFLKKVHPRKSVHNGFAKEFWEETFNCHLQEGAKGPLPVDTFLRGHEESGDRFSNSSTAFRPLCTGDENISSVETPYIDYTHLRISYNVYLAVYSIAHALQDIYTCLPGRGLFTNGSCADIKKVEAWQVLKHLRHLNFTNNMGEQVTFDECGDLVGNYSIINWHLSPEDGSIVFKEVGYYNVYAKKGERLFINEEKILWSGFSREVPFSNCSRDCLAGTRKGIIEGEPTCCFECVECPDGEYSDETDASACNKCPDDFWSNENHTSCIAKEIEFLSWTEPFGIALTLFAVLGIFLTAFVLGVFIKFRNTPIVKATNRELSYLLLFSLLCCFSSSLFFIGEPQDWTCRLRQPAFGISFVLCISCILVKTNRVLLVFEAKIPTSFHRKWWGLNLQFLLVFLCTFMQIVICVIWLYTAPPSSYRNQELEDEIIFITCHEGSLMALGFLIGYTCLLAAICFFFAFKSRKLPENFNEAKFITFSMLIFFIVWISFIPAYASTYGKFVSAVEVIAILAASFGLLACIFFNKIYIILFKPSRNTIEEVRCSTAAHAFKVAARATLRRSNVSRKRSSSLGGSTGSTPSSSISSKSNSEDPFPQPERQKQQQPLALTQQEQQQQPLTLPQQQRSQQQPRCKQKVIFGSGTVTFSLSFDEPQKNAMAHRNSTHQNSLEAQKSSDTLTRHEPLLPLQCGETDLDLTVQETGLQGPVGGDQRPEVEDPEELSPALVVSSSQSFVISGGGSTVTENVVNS
In words: [Ca2+]i measurement with fluo-3 in HEK 293 4.0-7 cells stably transfected with hPCaR. In kind it is cell-based. The conditions noted are these: fluo-3 fluorescence (485/530 nm), effect on [Ca^2+]i. The procedure, abridged:
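HEK 293 cells stably expressing human parathyroid Ca2+ receptor (clone 4.0-7), loaded with 2 μM fluo-3 AM for 30 min at 37 °C in parathyroid cell buffer (pH 7.45) with 1 mM CaCl2 and 0.5% BSA. After compound addition, intracellular Ca2+ followed by fluorescence at 485 nm excitation/530 nm emission.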

Turning to `C[C@@H](NCc1ccc(Cl)c(-c2ccc(C(F)(F)F)cc2)c1)c1cccc2ccccc12` [(1R)-N-((6-chloro-4′-(trifluoromethyl)-1,1′-biphenyl-3-yl)methyl)-1-(1-naphthalenyl)ethanamine], the half-maximal effective concentration (EC50) is at most 10 µM.
The compound `COc1ccnc(-c2cc(CN[C@H](C)c3ccccc3)ccc2OC)c1` [(1R)-N-((4-(methyloxy)-3-(4-(methyloxy)-2-pyridinyl)phenyl)methyl)-1-phenylethanamine] displayed an EC50 of at most 10 µM.
Compound `Cc1ccc(-c2cccc(CN[C@H](C)c3ccc4ccccc4c3)c2)cn1` [(1R)-N-((3-(6-methyl-3-pyridinyl)phenyl)methyl)-1-(2-naphthalenyl)ethanamine] showed an EC50 of at most 10 µM.
Turning to `COc1ccc(CN[C@H](C)c2cccc3ccccc23)cc1-c1ccc2c(c1)nc(C(F)(F)F)n2C` [(1R)-N-((4-(methyloxy)-3-(1-methyl-2-(trifluoromethyl)-1H-benzimidazol-5-yl)phenyl)methyl)-1-(1-naphthalenyl)ethanamine], the EC50 was at most 10 µM.
In the case of `COc1ccc(CN[C@H](C)c2ccccc2)cc1-c1ccc2c(c1)nc(C(F)(F)F)n2C` [(1R)-N-((4-(methyloxy)-3-(1-methyl-2-(trifluoromethyl)-1H-benzimidazol-5-yl)phenyl)methyl)-1-phenylethanamine], the EC50 is at most 10 µM.
Compound `C[C@@H](NCc1cccc(-c2ccccn2)c1)c1ccc2ccccc2c1` [(1R)-1-(2-naphthalenyl)-N-((3-(2-pyridinyl)phenyl)methyl)ethanamine] registered an EC50 of at most 10 µM.
Compound `COc1ccc(CN[C@H](C)c2ccccc2)cc1-c1cccc(C(N)=O)c1` [2′-(methyloxy)-5′-((((1R)-1-phenylethyl)amino)methyl)-1,1′-biphenyl-3-carboxamide] yielded an EC50 of at most 10 µM.
`COc1cccc([C@@H](C)NCc2ccc(OC)c(-c3ccc(S(C)(=O)=O)cc3)c2)c1` [(1R)-N-((6-(methyloxy)-4′-(methylsulfonyl)-1,1′-biphenyl-3-yl)methyl)-1-(3-(methyloxy)phenyl)ethanamine] gave an EC50 of at most 10 µM.
`COc1ccc(CN[C@H](C)c2cccc3ccccc23)cc1C1CCN(C(C)=O)CC1` [(1R)-N-((3-(1-acetyl-4-piperidinyl)-4-(methyloxy)phenyl)methyl)-1-(1-naphthalenyl)ethanamine]: the half-maximal effective concentration (EC50) is at most 10 µM.
Turning to `COCCOc1ccc(-c2cc(CN[C@H](C)c3ccccc3)ccc2OC)cn1` [(1R)-N-((4-(methyloxy)-3-(6-((2-(methyloxy)ethyl)oxy)-3-pyridinyl)phenyl)methyl)-1-phenylethanamine], the EC50 is at most 10 µM.
The value for `COc1cccc([C@@H](C)NCc2ccc(OC(F)F)c(-c3cccnc3)c2)c1` [(1R)-N-((4-((difluoromethyl)oxy)-3-(3-pyridinyl)phenyl)methyl)-1-(3-(methyloxy)phenyl)ethanamine] was at most 10 µM; that for `COc1ccc(CN[C@H](C)c2ccccc2)cc1-c1ccc2nccnc2c1` [(1R)-N-((4-(methyloxy)-3-(6-quinoxalinyl)phenyl)methyl)-1-phenylethanamine] was at most 10 µM.
`COc1ccc(CN[C@H](C)c2ccccc2)cc1-c1ccc2ccn(C)c2c1` [(1R)-N-((3-(1-methyl-1H-indol-6-yl)-4-(methyloxy)phenyl)methyl)-1-phenylethanamine] came in with an EC50 of at most 10 µM.
The value for `C[C@@H](NCc1cccc(-c2ccc(NC(=O)CCC(=O)O)nc2)c1)c1ccccc1` [4-oxo-4-((5-(3-((((1R)-1-phenylethyl)amino)methyl)phenyl)-2-pyridinyl)amino)butanoic acid] was at most 10 µM; that for `COc1cccc([C@@H](C)NCc2ccc(OC)c(-c3ccc4nonc4c3)c2)c1` [(1R)-N-((3-(2,1,3-benzoxadiazol-5-yl)-4-(methyloxy)phenyl)methyl)-1-(3-(methyloxy)phenyl)ethanamine] was at most 10 µM.
In turn, `COc1cccc([C@@H](C)NCc2ccc(OC)c(-c3ccc4oc(C)nc4c3)c2)c1` returned an EC50 of at most 10 µM.
`C[C@@H](NCc1cccc(-c2ccc(C(F)(F)F)nc2)c1)c1cccc2ccccc12` [(1R)-1-(1-naphthalenyl)-N-((3-(6-(trifluoromethyl)-3-pyridinyl)phenyl)methyl)ethanamine] showed an EC50 of at most 10 µM.
`COc1cccc([C@@H](C)NCc2ccc(OC)c(-c3cccc(C#N)c3)c2)c1` [2′-(methyloxy)-5′-((((1R)-1-(3-(methyloxy)phenyl)ethyl)amino)methyl)-1,1′-biphenyl-3-carbonitrile] registered an EC50 of at most 10 µM.
Regarding `COCCOc1ccc(CN[C@H](C)c2ccccc2)cc1-c1ccc(C(F)(F)F)cc1` [(1R)-N-((6-((2-(methyloxy)ethyl)oxy)-4′-(trifluoromethyl)-1,1′-biphenyl-3-yl)methyl)-1-phenylethanamine], the half-maximal effective concentration (EC50) is at most 10 µM.
In turn, `COc1cccc([C@@H](C)NCc2ccc(OC)c(-c3ccoc3)c2)c1` [(1R)-N-((3-(3-furanyl)-4-(methyloxy)phenyl)methyl)-1-(3-(methyloxy)phenyl)ethanamine] gave an EC50 of at most 10 µM.
`COc1ccc([C@@H](C)NCc2ccc(OC)c(-c3ccc(OC)nn3)c2)cc1` [(1R)-N-((4-(methyloxy)-3-(6-(methyloxy)-3-pyridazinyl)phenyl)methyl)-1-(4-(methyloxy)phenyl)ethanamine] showed an EC50 of at most 10 µM.
In turn, `COc1ccc(CN[C@H](C)c2ccc(C)cc2)cc1-c1cccc(C#N)c1` [2′-(methyloxy)-5′-((((1R)-1-(4-methylphenyl)ethyl)amino)methyl)-1,1′-biphenyl-3-carbonitrile] returned an EC50 of at most 10 µM.
The same measure for `COc1ccc(CN[C@H](C)c2ccccc2)cc1-c1ccc2ocnc2c1` [Example 264, (1R)-N-((3-(1,3-benzoxazol-5-yl)-4-(methyloxy)phenyl)methyl)-1phenylethanamine]: at most 10 µM.
`COc1ccc([C@@H](C)NCc2ccc(OC)c(-c3cccnc3)c2)cc1` [(1R)-1-(4-(methyloxy)phenyl)-N-((4-(methyloxy)-3-(3-pyridinyl)phenyl)methyl)ethanamine] returned an EC50 of at most 10 µM.
In turn, `COc1ccc(CN[C@H](C)c2cccc3ccccc23)cc1-c1ccc2ccn(C)c2c1` [(1R)-N-((3-(1-methyl-1H-indol-6-yl)-4-(methyloxy)phenyl)methyl)-1-(1-naphthalenyl)ethanamine] displayed a half-maximal effective concentration (EC50) of at most 10 µM.
The same measure for `C[C@@H](NCc1ccc(F)c(-c2ccc(F)cc2)c1)c1ccccc1` [Example 251, (1R)-N-((4′,6-difluoro-1,1′-biphenyl-3-yl)methyl)-1-phenylethanamine]: at most 10 µM; for `CCNC(=O)Nc1ccc(CN[C@H](C)c2ccccc2)cc1-c1ccc(OC)cc1` [N-ethyl-N′-(4′-(methyloxy)-5-((((1R)-1-phenylethyl)amino)methyl)-1,1′-biphenyl-2-yl)urea]: at most 10 µM; for `CC[C@@H](NCc1ccc(OC)c(-c2ccc(OC)cc2)c1)c1ccccc1` [Example 450, (1R)-N-((4′,6-bis(methyloxy)-1,1′-biphenyl-3-yl)methyl)-1-phenyl-1-propanamine]: at most 10 µM.
Take `COc1ccc(CN[C@H](C)c2ccc(C)cc2)cc1-c1cccnc1` [(1R)-N-((4-(methyloxy)-3-(3-pyridinyl)phenyl)methyl)-1-(4-methylphenyl)ethanamine]: the 50% effective concentration (EC50) is at most 10 µM.
`COc1cccc(-c2cc(CN[C@H](C)c3ccccc3)ccc2OC)c1` [Example 449, (1R)-N-((3′,6-bis(methyloxy)-1,1′-biphenyl-3-yl)methyl)-1-phenylethanamine] came in with an EC50 of at most 10 µM.
Turning to `COc1cccc([C@@H](C)NCc2ccc(OC)c(-c3ccc(C(N)=O)cc3)c2)c1` [2′-(methyloxy)-5′-((((1R)-1-(3-(methyloxy)phenyl)ethyl)amino)methyl)-1,1′-biphenyl-4-carboxamide], the EC50 is at most 10 µM.
The compound `COc1ccc(CN[C@H](C)c2ccccc2)cc1-c1cccnc1NCC1CCCO1` (stereo partly drawn) [3-(2-(methyloxy)-5-((((1R)-1-phenylethyl)amino)methyl)phenyl)-N-(tetrahydro-2-furanylmethyl)-2-pyridinamine] registered an EC50 of at most 10 µM.
In the case of `COc1ccc([C@@H](C)NCc2cccc(-c3ccccn3)c2)cc1` [(1R)-1-(4-(methyloxy)phenyl)-N-((3-(2-pyridinyl)phenyl)methyl)ethanamine], the EC50 was at most 10 µM.
